Legend:
[1] = Pharmacokinetic tests in rats; assay type: in vivo, Sprague–Dawley rats; conditions: for absorption in vivo (in words) / elimination rate (in words): intravenous injection of the compound preparation
[2] = Stability test of QC samples in rat plasma; assay type: in vitro ADME; conditions: for Extracted sample stability, Accuracy / Extracted sample stability, Concentration: extracted rat plasma samples; for Extracted sample stability, Accuracy / Long-term stability, Accuracy: relative error; for stability values (short- and long-term stability) / Short-term stability, Concentration / Long-term stability, Accuracy: rat plasma; for stability values (short- and long-term stability): all QC concentrations, room temperature 24 hours and −20°C 30 days; for Short-term stability, Concentration: room temperature for 24 hours; for Long-term stability, Accuracy: −20°C for 30 days
[3] = male, Sprague-Dawley, rat, plasma, iv, 144 mg/kg
[4] = rat, intravenous injection, 144 mg/kg, mean ± standard deviation
[5] = nominal concentration 300 ng/mL
[6] = nominal concentration 2400 ng/mL
[7] = rat plasma, intravenous injection of ticarcillin disodium and clavulanate, 144 mg/kg
[8] = rat plasma, intravenous injection, 144 mg/kg, mean ± standard deviation
[9] = nominal concentration 8000 ng/mL

SMILES | absorption in vivo (in words) ([1]; rat) | elimination rate (in words) ([1]; rat) | CL(/F) (clearance) [1, 4] [mL/min/kg] | Extracted sample stability, Concentration [2, 6] | Extracted sample stability, Accuracy [2, 6] [%] | stability values (short- and long-term stability) [2] | Short-term stability, Concentration [2, 6] [ng/mL] | Long-term stability, Accuracy [2, 6] [%] | tmax [1, 7] [min] | AUC0-t [1, 8] | AUC0-∞ [1, 8] | Vss obs (observed volume of distribution at steady state) [1, 4] [L/kg] | Extracted sample stability, Concentration ([2]; nominal concentration 30 ng/mL) [ng/mL] | Extracted sample stability, Accuracy ([2]; nominal concentration 30 ng/mL) [%] | Extracted sample stability, Concentration [2, 9] [ng/mL] | Extracted sample stability, Accuracy [2, 9] [%] | Short-term stability, Concentration ([2]; nominal concentration 30 ng/mL) [ng/mL] | Short-term stability, Concentration [2, 9] [ng/mL] | Long-term stability, Accuracy ([2]; nominal concentration 30 ng/mL) [%] | Long-term stability, Accuracy [2, 9] [%] | also measured
O=C(O)[C@H]1/C(=C/CO)O[C@@H]2CC(=O)N21 [Clavulanate] | rapidly absorbed in vivo | shortest t1/2 and most rapid elimination | 5780 ± 3400 | 2344 ± 98 ng/mL | −2.3 | −4.3% to 3.2 | 2389 ± 118 | −1.1 | – | – | – | – | – | – | – | – | – | – | – | – | AUC0-t [1, 3]: 541 ± 254 ng·h/mL; AUC(0-inf) [1, 3]: 559 ± 251 ng·h/mL; Cmax [1, 3]: 1660 ± 667 ng/mL; half-life [1, 3]: 10.2 ± 2.4 min; tmax [1, 3]: 4.98 min; Extracted sample stability, Accuracy ([2]; nominal concentration 80 ng/mL): −2.8%; Extracted sample stability, Concentration [2, 5]: 295 ± 17 ng/mL; Extracted sample stability, Accuracy [2, 5]: −1.7%; Short-term stability, Concentration ([2]; nominal concentration 80 ng/mL): 81.4 ± 0.6 ng/mL; Short-term stability, Concentration [2, 5]: 305 ± 11 ng/mL; Long-term stability, Accuracy ([2]; nominal concentration 80 ng/mL): 3.2%; Long-term stability, Accuracy [2, 5]: −3.7%
CC1(C)S[C@@H]2[C@H](NC(=O)[C@H](C(=O)O)c3ccsc3)C(=O)N2[C@H]1C(=O)O [Ticarcillin R] | rapidly absorbed in vivo | slower | 0.733 ± 0.17 | 2427 ± 16 ng/mL | 1.1 | – | 2349 ± 15 | −0.5 | 4.98 | 3,654,298 ± 430,890 ng·h/mL | 3,654,643 ± 431,153 ng·h/mL | 0.02 ± 0.00 | 28.6 ± 0.8 | −4.7 | 8291 ± 91 | 3.6 | 30.4 ± 0.6 | 7918 ± 107 | −4.3 | 0.8 | –
CC1(C)S[C@@H]2[C@H](NC(=O)[C@@H](C(=O)O)c3ccsc3)C(=O)N2[C@H]1C(=O)O [Ticarcillin S] | rapidly absorbed in vivo | – | 827.8 ± 63.2 | 2,465 ± 12 ng/mL | 2.7 | – | 2457 ± 19 | 1.3 | 4.98 | 3270 ± 262 ng·h/mL | 3274 ± 264 ng·h/mL | 12.2 ± 0.68 | 30.8 ± 1.3 | 2.7 | 7985 ± 93 | −0.2 | 28.8 ± 0.9 | 7931 ± 113 | −2.3 | −0.6 | –
CC1(C)S[C@@H]2[C@H](NC(=O)[C@H](C(=O)O)c3ccsc3)C(=O)N2[C@H]1C(=O)O [ticarcillin] | – | – | – | – | – | −4.3% to 3.2 | – | – | – | – | – | – | – | – | – | – | – | – | – | – | –

— article PMC7770263 (The Journal of International Medical Research, 2020)
